Molecular target: P. falciparum apicoplast DNA polymerase (Pf-apPOL) (Plasmodium falciparum, UniProt Q8ILY1)
Experiment: Fluorescence-based high-throughput DNA polymerase assay (molecular beacon), primary screen and dose-response;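 for % inhibition ApPOL 90': test concentration in µM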;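 for % inhibition apPOL 180': test concentration in µM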
Format: biochemical
Outline: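 Single-point screening used 10 µM compound with 20 nM polymerase, 20 nM hairpin substrate and 6 µM dNTPs for 90 min at 25 °C. Confirmatory titrations (2.5–80 µM) followed fluorescence at three times, and IC50 was derived from a fit including a cooperativity term n.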

Sequence of P. falciparum apicoplast DNA polymerase (Pf-apPOL) (Q8ILY1 entry or part of it): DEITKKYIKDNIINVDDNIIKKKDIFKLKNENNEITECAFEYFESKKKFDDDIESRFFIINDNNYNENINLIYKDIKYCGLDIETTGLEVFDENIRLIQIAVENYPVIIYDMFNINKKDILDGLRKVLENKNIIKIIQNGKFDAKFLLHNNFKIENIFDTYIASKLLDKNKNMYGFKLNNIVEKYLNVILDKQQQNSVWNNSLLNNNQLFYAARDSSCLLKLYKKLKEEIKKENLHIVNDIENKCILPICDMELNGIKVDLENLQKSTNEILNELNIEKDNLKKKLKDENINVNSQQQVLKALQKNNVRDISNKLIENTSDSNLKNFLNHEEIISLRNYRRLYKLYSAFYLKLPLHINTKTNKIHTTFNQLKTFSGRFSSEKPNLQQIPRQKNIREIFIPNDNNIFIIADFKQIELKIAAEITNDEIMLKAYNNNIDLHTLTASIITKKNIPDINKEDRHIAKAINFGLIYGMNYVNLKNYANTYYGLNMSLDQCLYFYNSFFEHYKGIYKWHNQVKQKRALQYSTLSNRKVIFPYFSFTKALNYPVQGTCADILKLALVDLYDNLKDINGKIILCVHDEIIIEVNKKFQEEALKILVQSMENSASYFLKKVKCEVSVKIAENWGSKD

Structure (SMILES): COc1ccc(NC(=O)Cn2ccc3c(=O)[nH]ccc32)cc1Cl [Molecule 10, COc1ccc(cc1Cl)NC(=O)Cn1ccc2c1cc[nH]c2=O]
- % inhibition Apo pol 10' (DRC-1; 10'; concentration 2.5): 12.1098%
- % inhibition Apo pol 10' (DRC-1; 10'; concentration 5): 41.0198%
- % inhibition Apo pol 10' (DRC-1; 10'; concentration 10): 64.5653%
- % inhibition Apo pol 10' (DRC-1; 10'; concentration 20): 78.092%
- % inhibition Apo pol 10' (DRC-1; 10'; concentration 40): 83.862%
- % inhibition Apo pol 10' (DRC-1; 10'; concentration 80): 74.6013%
- % inhibition Apol 90' (DRC-1; 90'; concentration 2.5): 1.658%
- % inhibition Apol 90' (DRC-1; 90'; concentration 5): 26.4531%
- % inhibition Apol 90' (DRC-1; 90'; concentration 10): 48.8726%
- % inhibition Apol 90' (DRC-1; 90'; concentration 20): 69.5261%
- % inhibition Apol 90' (DRC-1; 90'; concentration 40): 86.3942%
- % inhibition Apol 90' (DRC-1; 90'; concentration 80): 83.0123%
- % inhibition apPOL 180' (DRC-1; 180'; concentration 2.5): -4.328%
- % inhibition apPOL 180' (DRC-1; 180'; concentration 5): 12.6648%
- % inhibition apPOL 180' (DRC-1; 180'; concentration 10): 30.7094%
- % inhibition apPOL 180' (DRC-1; 180'; concentration 20): 56.2759%
- % inhibition apPOL 180' (DRC-1; 180'; concentration 40): 85.5137%
- % inhibition apPOL 180' (DRC-1; 180'; concentration 80): 84.9384%
- % inhibition Apo pol 5' (DRC-2; 5'; concentration 2.5): 22%
- % inhibition Apo pol 5' (DRC-2; 5'; concentration 5): 37%
- % inhibition Apo pol 5' (DRC-2; 5'; concentration 10): 48%
- % inhibition Apo pol 5' (DRC-2; 5'; concentration 20): 44%
- % inhibition Apo pol 5' (DRC-2; 5'; concentration 40): 37%
- % inhibition Apo pol 5' (DRC-2; 5'; concentration 80): 19%
- % inhibition Apol 40' (DRC-2; 40'; concentration 2.5): 23%
- % inhibition Apol 40' (DRC-2; 40'; concentration 5): 47%
- % inhibition Apol 40' (DRC-2; 40'; concentration 10): 64%
- % inhibition Apol 40' (DRC-2; 40'; concentration 20): 65%
- % inhibition Apol 40' (DRC-2; 40'; concentration 40): 62%
- % inhibition Apol 40' (DRC-2; 40'; concentration 80): 51%
- % inhibition ApPOL 90' (DRC-2; 90'; concentration 2.5): 20%
- % inhibition ApPOL 90' (DRC-2; 90'; concentration 5): 45%
- % inhibition ApPOL 90' (DRC-2; 90'; concentration 10): 66%
- % inhibition ApPOL 90' (DRC-2; 90'; concentration 20): 69%
- % inhibition ApPOL 90' (DRC-2; 90'; concentration 40): 68%
- % inhibition ApPOL 90' (DRC-2; 90'; concentration 80): 59%
- % inhibition apPOL 180' (DRC-2; 180'; concentration 2.5): 8%
- % inhibition apPOL 180' (DRC-2; 180'; concentration 5): 34%
- % inhibition apPOL 180' (DRC-2; 180'; concentration 10): 62%
- % inhibition apPOL 180' (DRC-2; 180'; concentration 20): 70%
- % inhibition apPOL 180' (DRC-2; 180'; concentration 40): 73%
- % inhibition apPOL 180' (DRC-2; 180'; concentration 80): 67%
- % inhibition Apo pol 5' (conc. 5; 5'; DRC-2): 37%
- % inhibition apPOL 180' (conc. 10; 180'; DRC-2): 62%
- % inhibition Apo pol 5' (conc. 40; 5'; DRC-2): 37%
- % inhibition Apol 40' (conc. 40; 40'; DRC-2): 62%
- DNA Pol (primary screen value by plate and well; 90 min, 10 µM): 78
- DNA Pol (primary screen value of the 186 hits; unit not given; 90 min, 10 µM): 78

Structure (SMILES): Oc1ccc(N=Nc2ccccc2)c(O)c1 [Molecule 80, Oc1ccc(c(c1)O)N=Nc1ccccc1]
- DNA Pol (186 hits, value of the hit list (primary screen); unit not given; 90 min, 10 µM): 72
- % inhibition Apo pol 10' (DRC-1; 10'; concentration 2.5): 10.9556%
- % inhibition Apo pol 10' (DRC-1; 10'; concentration 5): 10.5427%
- % inhibition Apo pol 10' (DRC-1; 10'; concentration 10): 21.5612%
- % inhibition Apo pol 10' (DRC-1; 10'; concentration 20): 33.6555%
- % inhibition Apo pol 10' (DRC-1; 10'; concentration 40): 51.3856%
- % inhibition Apo pol 10' (DRC-1; 10'; concentration 80): 71.5271%
- % inhibition Apol 90' (DRC-1; 90'; concentration 2.5): -0.1987%
- % inhibition Apol 90' (DRC-1; 90'; concentration 5): 0.4517%
- % inhibition Apol 90' (DRC-1; 90'; concentration 10): 6.956%
- % inhibition Apol 90' (DRC-1; 90'; concentration 20): 15.0719%
- % inhibition Apol 90' (DRC-1; 90'; concentration 40): 30.4244%
- % inhibition Apol 90' (DRC-1; 90'; concentration 80): 54.1765%
- % inhibition apPOL 180' (DRC-1; 180'; concentration 2.5): -4.521%
- % inhibition apPOL 180' (DRC-1; 180'; concentration 5): -7.381%
- % inhibition apPOL 180' (DRC-1; 180'; concentration 10): -2.239%
- % inhibition apPOL 180' (DRC-1; 180'; concentration 20): 3.639%
- % inhibition apPOL 180' (DRC-1; 180'; concentration 40): 16.6852%
- % inhibition apPOL 180' (DRC-1; 180'; concentration 80): 39.1474%
- % inhibition Apo pol 5' (DRC-2, 5', concentration 2.5): 1.77%
- % inhibition Apo pol 5' (DRC-2, 5', concentration 5): 5.48%
- % inhibition Apo pol 5' (DRC-2, 5', concentration 10): 24%
- % inhibition Apo pol 5' (DRC-2, 5', concentration 20): 31%
- % inhibition Apo pol 5' (DRC-2, 5', concentration 40): 44%
- % inhibition Apo pol 5' (DRC-2, 5', concentration 80): 51%
- % inhibition Apol 40' (DRC-2, 40', concentration 2.5): 1.06%
- % inhibition Apol 40' (DRC-2, 40', concentration 5): 2.17%
- % inhibition Apol 40' (DRC-2, 40', concentration 10): 23%
- % inhibition Apol 40' (DRC-2, 40', concentration 20): 29%
- % inhibition Apol 40' (DRC-2, 40', concentration 40): 43%
- % inhibition Apol 40' (DRC-2, 40', concentration 80): 54%
- % inhibition ApPOL 90' (DRC-2, 90', concentration 2.5): -1%
- % inhibition ApPOL 90' (DRC-2, 90', concentration 5): -0.664%
- % inhibition ApPOL 90' (DRC-2, 90', concentration 10): 21%
- % inhibition ApPOL 90' (DRC-2, 90', concentration 20): 24%
- % inhibition ApPOL 90' (DRC-2, 90', concentration 40): 38%
- % inhibition ApPOL 90' (DRC-2, 90', concentration 80): 52%
- % inhibition apPOL 180' (DRC-2, 180', concentration 2.5): -4%
- % inhibition apPOL 180' (DRC-2, 180', concentration 5): -4.42%
- % inhibition apPOL 180' (DRC-2, 180', concentration 10): 16%
- % inhibition apPOL 180' (DRC-2, 180', concentration 20): 15%
- % inhibition apPOL 180' (DRC-2, 180', concentration 40): 25%
- % inhibition apPOL 180' (DRC-2, 180', concentration 80): 41%
- % inhibition Apo pol 5' (DRC-2; 5'; concentration 10): 24%
- % inhibition ApPOL 90' (DRC-2; 90'; concentration 20): 24%
- DNA Pol (primary screen value, 'DNA Pol' only; 90 min, 10 µM): 72

Structure (SMILES): CCCCOC(=O)CCCCCN1C(=O)C(=Cc2ccc(OC)cc2)SC1=S [Molecule 75]
- IC50 (supplemental file 2, sheet IC50 nontoxic compounds; Pf-apPOL): 56.7 µM

Structure (SMILES): O=[N+]([O-])c1cc2c(cc1CN1CCN(c3cccc(Cl)c3)CC1)OCO2 [KU0005610]
- DNA Pol ('DNA Pol'; screening value, unit not given; 90 min, 10 µM): 40
- % inhibition Apo pol 10' (DRC-1; 10'; concentration 2.5): 13.4536%
- % inhibition Apo pol 10' (DRC-1; 10'; concentration 5): 19.449%
- % inhibition Apo pol 10' (DRC-1; 10'; concentration 10): 35.0383%
- % inhibition Apo pol 10' (DRC-1; 10'; concentration 20): 58.0522%
- % inhibition Apo pol 10' (DRC-1; 10'; concentration 40): 81.6045%
- % inhibition Apo pol 10' (DRC-1; 10'; concentration 80): 82.8557%
- % inhibition Apol 90' (DRC-1; 90'; concentration 2.5): 0.2927%
- % inhibition Apol 90' (DRC-1; 90'; concentration 5): 2.869%
- % inhibition Apol 90' (DRC-1; 90'; concentration 10): 13.5382%
- % inhibition Apol 90' (DRC-1; 90'; concentration 20): 40.3549%
- % inhibition Apol 90' (DRC-1; 90'; concentration 40): 64.8091%
- % inhibition Apol 90' (DRC-1; 90'; concentration 80): 60.8313%
- % inhibition apPOL 180' (DRC-1; 180'; concentration 2.5): -5.629%
- % inhibition apPOL 180' (DRC-1; 180'; concentration 5): -4.543%
- % inhibition apPOL 180' (DRC-1; 180'; concentration 10): 2.609%
- % inhibition apPOL 180' (DRC-1; 180'; concentration 20): 32.6998%
- % inhibition apPOL 180' (DRC-1; 180'; concentration 40): 54.6533%
- % inhibition apPOL 180' (DRC-1; 180'; concentration 80): 41.754%
- % inhibition Apo pol 5' (DRC-2, 5', concentration 2.5): 6%
- % inhibition Apo pol 5' (DRC-2, 5', concentration 5): 11%
- % inhibition Apo pol 5' (DRC-2, 5', concentration 10): 25%
- % inhibition Apo pol 5' (DRC-2, 5', concentration 20): 34%
- % inhibition Apo pol 5' (DRC-2, 5', concentration 40): 45%
- % inhibition Apo pol 5' (DRC-2, 5', concentration 80): 49%
- % inhibition Apol 40' (DRC-2, 40', concentration 2.5): 2.55%
- % inhibition Apol 40' (DRC-2, 40', concentration 5): 6.48%
- % inhibition Apol 40' (DRC-2, 40', concentration 10): 18%
- % inhibition Apol 40' (DRC-2, 40', concentration 20): 28%
- % inhibition Apol 40' (DRC-2, 40', concentration 40): 49%
- % inhibition Apol 40' (DRC-2, 40', concentration 80): 61%
- % inhibition ApPOL 90' (DRC-2, 90', concentration 2.5): -0.242%
- % inhibition ApPOL 90' (DRC-2, 90', concentration 5): 1.42%
- % inhibition ApPOL 90' (DRC-2, 90', concentration 10): 11%
- % inhibition ApPOL 90' (DRC-2, 90', concentration 20): 20%
- % inhibition ApPOL 90' (DRC-2, 90', concentration 40): 45%
- % inhibition ApPOL 90' (DRC-2, 90', concentration 80): 61%
- % inhibition apPOL 180' (DRC-2, 180', concentration 2.5): -7.6%
- % inhibition apPOL 180' (DRC-2, 180', concentration 5): -5.3%
- % inhibition apPOL 180' (DRC-2, 180', concentration 10): 2.12%
- % inhibition apPOL 180' (DRC-2, 180', concentration 20): 7%
- % inhibition apPOL 180' (DRC-2, 180', concentration 40): 32%
- % inhibition apPOL 180' (DRC-2, 180', concentration 80): 53%
- % inhibition Apo pol 5' (conc 5 (unit not given); 5'; DRC-2): 11%
- % inhibition ApPOL 90' (conc 10 (unit not given); 90'; DRC-2): 11%
- % inhibition Apo pol 5' (conc 40 (unit not given); 5'; DRC-2): 45%
- % inhibition Apol 40' (conc 40 (unit not given); 40'; DRC-2): 49%
- % inhibition ApPOL 90' (conc 40 (unit not given); 90'; DRC-2): 45%
- % inhibition Apo pol 5' (conc 80 (unit not given); 5'; DRC-2): 49%
- % inhibition Apol 40' (conc 80 (unit not given); 40'; DRC-2): 61%
- % inhibition ApPOL 90' (conc 80 (unit not given); 90'; DRC-2): 61%
- DNA Pol (primary screen hit value, DNA Pol (186 hits); 90 min, 10 µM): 40

From article PMC9090415, “Discovery of small molecule inhibitors of Plasmodium falciparum apicoplast DNA polymerase” (Journal of Enzyme Inhibition and Medicinal Chemistry, 2022)
